Reference: patent US11541041B1, “Compounds that interact with the Ras superfamily for the treatment of cancers, inflammatory diseases, Rasopathies, and fibrotic disease” (Shy Therapeutics LLC, priority 2017, dated 2023)
Like-named read-outs stand apart in the source and are kept apart here.

Columns and labels:
[1] = biological target: KRas G12D mutant protein (Homo sapiens (Human), UniProt P01116, G12D); assay: Ras GTP binding domain inhibition assay
Protocol: The following method was developed as specific assay for KRas G12D mutant protein.
(§1) Buffer-I: • 50 mM Tris, pH 7.5 • 150 mM NaCl (optional) • 1 mM MgCl2 • 1 mM DTT. • KRas G12D mutant protein was expressed as a His-tagged protein. Purified His-KRas G12D protein was diluted in buffer-I to a final concentration of 3-10 μg/ml. • 200 μl of the diluted His-KRas G12D protein was added to a nickel coated 96 well plate and incubated overnight at 4° C. • The next day, wells were washed 3× in 200 μl of Buffer-I. • Then 200 μl of Buffer-I were added to each well in the presence of 1% DMSO. • Tested compounds were added to the protein-coated wells at a concentration of 20 μM, and incubated for 3 hours at room temperature. While performing IC50 measurements a serial dilution of all tested concentrations was prepared.
(§2) Then 22 μl of Cy3-GTP or Cy5-GTP was added to each well. The labeled GTP was incubated for 45 min. at room temperature. • Following GTP incubation, wells were washed 3× in Buffer-I, and 200 μl of Buffer-I were added to each well. • Following washes, the amount of bound labeled-GTP was measured with an Eppendorf AF2200 plate reader.

[2] = biological target: KRas G12C mutant (Homo sapiens (Human), UniProt P01116, G12C); assay: Ras GTP binding domain inhibition assay; settings: 20 μM compound
Sequence of KRas G12C mutant (P01116-2 other isoform, or with tags, fused parts or gaps G12C): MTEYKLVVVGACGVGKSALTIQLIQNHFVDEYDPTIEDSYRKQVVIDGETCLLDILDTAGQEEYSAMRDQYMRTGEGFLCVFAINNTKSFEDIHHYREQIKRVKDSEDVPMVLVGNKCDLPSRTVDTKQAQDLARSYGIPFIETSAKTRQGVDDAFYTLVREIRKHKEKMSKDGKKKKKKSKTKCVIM
Protocol: as §1, §2
(§3) By substituting KRas G12D mutant protein with KRas G12C mutant, KRas wild type, KRas Q61H mutant, KRas G12D/Q61H double mutant or KRas G12C/Q61H double mutant under the assay conditions described above, KRas G12C mutant KRas wild type, KRas Q61H mutant, KRas G12D/Q61H double mutant and KRas G12C/Q61H double mutant inhibition, respectively, were each determined.

[3] = biological target: KRas wild type (Homo sapiens (Human), UniProt P01116); assay: Ras GTP binding domain inhibition assay; settings: 20 μM compound
Sequence of KRas wild type (P01116-2 other isoform, or with tags, fused parts or gaps): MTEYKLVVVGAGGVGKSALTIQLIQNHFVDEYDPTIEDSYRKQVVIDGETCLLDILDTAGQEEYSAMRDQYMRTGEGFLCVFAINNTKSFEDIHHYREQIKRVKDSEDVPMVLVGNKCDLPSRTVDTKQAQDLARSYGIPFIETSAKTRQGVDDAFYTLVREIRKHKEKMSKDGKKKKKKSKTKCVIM
Protocol: as §1, §2, §3

[4] = tested on: MIA-PACA2 pancreatic cancer cell lines; assay: Cell proliferation assay (CellTiter 96 AQueous One); format: cell-based; settings: Homo sapiens, MIA PaCa-2; for inhibition at 30 µM: MIA-PACA2
Protocol: (§4) Cell lines: Tumor-derived pancreatic cancer cell lines MIA-PACA2 were purchased from ATCC and grown in complete DMEM-High Glucose medium supplemented with penicillin (100 U/mL), streptomycin (100 μg/mL), and 10% heat-inactivated FBS at 37° C. in a humidified incubator with 5% CO2.
Method: Cells are plated at 1000 cells/well density in 96-wells plate, starved ON, and the next day tested small molecules are added to the cells in the final concentration of 30 μM with 0.3% DMSO 3 hours prior to 10% FBS addition. After serum addition cells are incubated for 6 days at 37° C. in a humidified incubator with 5% CO2. For IC50 value determination, serial dilutions of compounds were added to cells under the same conditions.
Assay: At the end of the incubation period, cell cultures are tested using the CellTiter 96® AQueous One Solution Cell Proliferation Assay kit (Promega Corporation, Madison, Wis.) according to the manufacturer specifications. Briefly, assay is performed by adding 20 μl of the CellTiter 96 Aqueous One Solution Reagent directly to culture wells, followed by for 1-4 hours incubation at 37° C. in a humidified incubator with 5% CO2. At the end of incubation time, absorbance at 492 nm is recorded with the 96-well plate reader Eppendorf AF2200, and degree of small molecule-dependent proliferation inhibition is calculated from raw data assuming No Serum cells value as 100%.

[5] = tested on: MAPK phosphorylation in PANC-1 pancreatic cancer cell line; assay: MAPK cell-based phosphorylation assay (cell-direct ELISA, EGF-stimulated); settings: Homo sapiens
Protocol: Cell lines: Tumor-derived pancreatic cancer cell lines PANC-1 were purchased from ATCC and were maintained according to ATCC recommendation.
Method: Cells were plated at 7500 cells/well density in 96-wells plate, starved over night, and the small molecules to be tested were added to the cells in the final concentration of 30 μM with 0.3% DMSO for 6 hours incubation at 37° C. For IC50 value determination, serial dilutions of compounds were added to cells under the same conditions. Next, cells were stimulated with 1.5 ng/ml EGF for 15 min. followed by cell fixation with 4% Formaldehyde in PBS at RT for 20 min. Phosphorylation level of MAPK was determined by Cell-direct ELISA.
Cell-direct ELISA: For each well, cells were permeabilized with PBS-Triton 0.1%, quenched with H2O2 0.6% in PBS-Triton 0.1%, and probed with anti-phospho-MAPK antibodies (R&D Systems) followed by HRP-conjugated secondary antibody (Jackson Immunoresearch, West Grove, Pa.). Next, a solution 50 μM of the fluorescent substrate AmpliFlu Red (Sigma) was added and incubated at RT for 20 min. At the end of the incubation time, fluorescence was measured at 595 nm on a microplate reader (AF2200; Eppendorf, Inc., Hamburg, Germany).

[6] = biological target: KRas Q61H mutant (Homo sapiens (Human), UniProt P01116, Q61H); assay: Ras GTP binding domain inhibition assay; settings: 20 μM compound
Sequence of KRas Q61H mutant (P01116-2 other isoform, or with tags, fused parts or gaps Q61H): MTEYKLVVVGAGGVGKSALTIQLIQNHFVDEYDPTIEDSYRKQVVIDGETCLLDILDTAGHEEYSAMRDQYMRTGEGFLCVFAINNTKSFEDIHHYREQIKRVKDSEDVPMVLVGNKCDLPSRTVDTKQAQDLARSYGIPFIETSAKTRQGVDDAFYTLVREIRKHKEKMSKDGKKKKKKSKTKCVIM
Protocol: as §1, §2, §3

[7] = tested on: MIA-PACA2 pancreatic cancer cell lines; assay: Cell proliferation assay, alternate assay conditions (DAPI staining); format: cell-based; settings: Homo sapiens, MIA PaCa-2; for inhibition at 10 µM: * = tested at 10 μM, alternate conditions, MIA-PACA2; for IC50: MIA-PACA2 proliferation, same assay as % inhibition (alternate conditions)
Protocol: as §4
Method: Cells are plated at 4000 cells/well density in 96-wells plate. The next day tested small molecules are added to the cells in the final concentration of 10 μM in the presence of 0.3% DMSO and 10% FBS. After small molecules addition, cells are incubated for 4 days at 37° C. in a humidified incubator with 5% CO2. For IC50 value determination, serial dilutions of compounds were added to cells under the same conditions.
Assay: At the end of the incubation period, cell cultures are fixed with a 50-50 mixture (v/v) acetone-methanol for 10 minutes at −20° C., followed by rehydration in PBS for 10 minutes at room temperature. After rehydration, cells are stained with DAPI (1 μg/ml) in PBS for 10 minutes at room temperature, followed by 3 washes with PBS. After staining, DAPI fluorescence is recorded (358 nm excitation/461 nm emission) with the 96-well plate reader Molecular Devices Spectramax M3; degree of small mole-cule-dependent proliferation inhibition is calculated from raw data assuming No Serum cells value as 100%.

[8] = biological target: KRas G12D/Q61H double mutant (Homo sapiens (Human), UniProt P01116, G12D/Q61H); assay: Ras GTP binding domain inhibition assay
Sequence of KRas G12D/Q61H double mutant (P01116-2 other isoform, or with tags, fused parts or gaps G12D/Q61H): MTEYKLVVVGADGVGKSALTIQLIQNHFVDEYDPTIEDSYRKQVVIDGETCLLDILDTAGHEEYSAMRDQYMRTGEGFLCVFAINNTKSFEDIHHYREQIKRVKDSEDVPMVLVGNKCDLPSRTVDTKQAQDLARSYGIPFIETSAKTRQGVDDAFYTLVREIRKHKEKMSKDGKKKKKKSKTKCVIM
Protocol: as §1, §2, §3

[9] = biological target: Rac-1 (Homo sapiens (Human), UniProt P63000); assay: Rac and Rho inhibition assay; format: binding; settings: read-out: Rac-1 % Inh.
Protocol: as §1, §2
(§5) By substituting KRas G12D mutant protein with either Rac-1 or Rho-A under the assay conditions described in Example 5, Rac-1 and Rho-A inhibition, respectively, were each determined.

[10] = biological target: Rho-A (Homo sapiens (Human), UniProt P61586); assay: Rac and Rho inhibition assay; format: binding; settings: read-out: Rho-A % Inh.
Sequence of Rho-A (P61586 whole entry): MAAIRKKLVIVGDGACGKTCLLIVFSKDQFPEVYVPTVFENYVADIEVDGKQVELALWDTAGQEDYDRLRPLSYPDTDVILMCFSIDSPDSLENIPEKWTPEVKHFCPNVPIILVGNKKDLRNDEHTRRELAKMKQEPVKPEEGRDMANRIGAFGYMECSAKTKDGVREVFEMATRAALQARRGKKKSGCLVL
Protocol: as §1, §2, §5

[11] = biological target: KRas G12C/Q61H double mutant (Homo sapiens (Human), UniProt P01116, G12C/Q61H); assay: Ras GTP binding domain inhibition assay; settings: 20 μM compound
Sequence of KRas G12C/Q61H double mutant (P01116-2 other isoform, or with tags, fused parts or gaps G12C/Q61H): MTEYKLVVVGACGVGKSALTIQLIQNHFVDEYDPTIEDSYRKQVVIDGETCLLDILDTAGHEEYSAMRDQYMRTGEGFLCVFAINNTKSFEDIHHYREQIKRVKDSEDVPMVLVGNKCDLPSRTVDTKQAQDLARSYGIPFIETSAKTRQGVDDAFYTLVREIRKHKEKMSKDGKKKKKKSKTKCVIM
Protocol: as §1, §2, §3

[12] = 20 μM compound, read-out: % Inhibition at 20 μM, KRas G12D
[13] = at 20 μM, read-out: KRas G12D % Inh.
[14] = 20 μM compound, read-out: % Inhibition at 20 μM, KRas G12D Q61H

Sequence of KRas G12D mutant protein (P01116-2 other isoform, or with tags, fused parts or gaps G12D): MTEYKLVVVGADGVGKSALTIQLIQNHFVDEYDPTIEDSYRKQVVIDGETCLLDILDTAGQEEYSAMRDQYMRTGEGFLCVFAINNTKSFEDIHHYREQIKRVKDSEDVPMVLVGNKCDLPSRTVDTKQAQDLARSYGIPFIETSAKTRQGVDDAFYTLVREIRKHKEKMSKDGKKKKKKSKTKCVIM

Cc1ccc(-c2csc3c(O)nc(-c4nccn4C)nc23)c(F)c1
inhibition at 20 µM [1, 12]: 25 to 50%
inhibition at 20 µM [2]: 1 to 25%
inhibition at 20 µM [3]: 1 to 25%

COc1cncc(CCNC(=O)c2csc3nc(-c4ccccn4)nc(N4CCOCC4)c23)c1
inhibition at 30 µM [4]: 51 to 75%

O=C(CCc1c[nH]c2ccccc12)Nc1nnc(-c2cccnc2)[nH]1
inhibition at 30 µM [5]: 25 to 50%

COC(=O)c1c(C)sc2c(O)nc(-c3ccccn3)nc12
% Inhibition at 20 μM, KRas Q61H [6]: D (D = 76-100% inhibition)

O=C(NCCc1cnc(O)nc1)c1csc2nc(-c3ccccn3)nc(N3CCSCC3)c12 [drawing 1764]
inhibition at 30 µM [4]: 1 to 25%

COc1ccc(CCNC(=O)c2csc3nc(-c4ccccn4)nc(N4CCSCC4)c23)cn1 [drawing 1763]
inhibition at 30 µM [4]: 51 to 75%

Cn1ccnc1-c1nc(NCCOS)c2c(-c3ccccn3)c(-c3ccccc3)sc2n1
inhibition at 10 µM [7]: 76 to 100%
IC50 [7]: 501 to 1000 nM

COc1nc(-c2ccccn2)nc2c(-c3cc(CN4CCCC4)ccc3F)csc12
inhibition at 10 µM [7]: 76 to 100%

Nc1nc(-c2ccccn2)nc2c(-c3ccccn3)csc12
inhibition at 10 µM [7]: 76 to 100%
inhibition at 30 µM [4]: 76 to 100%
IC50 ([4]; MIA-PACA2 proliferation, compound tested under both conditions, IC50 assay conditions not specified): > 1000 nM

Oc1nc(-c2ccccn2)nc2c(-c3ccccc3)csc12
inhibition at 10 µM ([5]; * = tested at 10 μM): 25 to 50%

COCCNc1nc(-c2nccn2C)nc2sc(-c3ccccc3)c(-c3ccccc3)c12 [drawing 3594]
% Inhibition at 20 μM, KRas G12D ([1]; 20 μM compound): B (B = 25-50% inhibition)
% Inhibition at 20 μM, KRas G12C [2]: A (A = 1-25% inhibition)
% Inhibition at 20 μM, KRas wild type [3]: B (B = 25-50% inhibition)

COc1nc(-c2ccccn2)nc2c(-c3cccc(C#N)c3)csc12
inhibition at 10 µM [7]: 76 to 100%

SOCCNc1nc(-c2ccccn2)nc2sc(-c3ccccc3)c(-c3ccccn3)c12
inhibition at 10 µM [7]: 76 to 100%

O=C(Nc1nnc(-c2ccccc2)[nH]1)c1ncoc1-c1cccs1
inhibition at 30 µM [5]: 25 to 50%

Nc1nc(-c2ccccn2)nc2c(CC3CCNCC3)csc12
inhibition at 20 µM [1, 13]: 51 to 75%
inhibition at 20 µM ([8]; at 20 μM, read-out: KRas G12D Q61H % Inh.): 51 to 75%
inhibition at 20 µM [9]: 51 to 75%
inhibition at 20 µM [10]: 76 to 100%

O=c1[nH]c(-c2ccccn2)nc2c(C3O[C@H](CO)[C@@H](O)[C@H]3O)csc12 (stereo partly shown)
inhibition at 10 µM [7]: 76 to 100%

O=C(Nc1nnc(-c2ccccc2)[nH]1)C1CCCC1
inhibition at 30 µM [5]: 1 to 25%

CC(O)ONc1nc(-c2nccn2C)nc2sc(-c3ccccc3)c(-c3ccccc3)c12 (stereo not shown)
inhibition at 20 µM [1, 13]: 1 to 25%
inhibition at 20 µM [9]: 25 to 50%
inhibition at 20 µM [10]: 25 to 50%

Cc1cccc(-c2c(C)sc3c(O)nc(-c4nccn4C)nc23)c1
inhibition at 20 µM [1, 12]: 1 to 25%
inhibition at 20 µM [2]: 1 to 25%
inhibition at 20 µM [3]: 1 to 25%

Cc1nc(-c2nccn2C)nc2sc(-c3ccccc3)c(-c3ccccc3)c12
inhibition at 20 µM [8, 14]: 1 to 25%
inhibition at 20 µM [11]: 1 to 25%
inhibition at 20 µM [6]: 1 to 25%

Nc1nc(-c2ccccn2)nc2c(CC3CNC3)csc12
inhibition at 20 µM [8, 14]: 25 to 50%
inhibition at 20 µM [11]: 51 to 75%
inhibition at 20 µM [6]: 51 to 75%

COCCNc1nc(-c2nccn2C)nc2sc(-c3ccccc3)c(-c3ccccc3)c12 [drawing 3568]
% Inhibition at 20 μM, KRas G12C [2]: C (C = 51-75% inhibition)
% Inhibition at 20 μM, KRas wild type [3]: A (A = 1-25% inhibition)
inhibition at 20 µM [11]: 51 to 75%
inhibition at 20 µM [6]: 51 to 75%

Nc1nc(-c2ccccn2)nc2c(C3CC3)csc12
inhibition at 20 µM [1, 12]: 51 to 75%
inhibition at 20 µM [8, 14]: 25 to 50%
inhibition at 20 µM [2]: 25 to 50%
inhibition at 20 µM [3]: 25 to 50%
inhibition at 20 µM [11]: 1 to 25%
inhibition at 20 µM [6]: 25 to 50%

COOCCNc1nc(-c2nccn2C)nc2sc(-c3ccccc3)c(-c3ccccc3)c12
inhibition at 10 µM [7]: 76 to 100%
IC50 [7]: 501 to 1000 nM

COc1nc(-c2ccccn2)nc2c(-c3cccc(O)c3)csc12
inhibition at 10 µM [7]: 76 to 100%

COCCCCNC(=O)c1csc2nc(-c3ccccn3)nc(N3CCSCC3)c12
inhibition at 30 µM [4]: 1 to 25%

COCCOCCN(CCO)C(=O)c1csc2c(O)nc(-c3ccccn3)nc12
inhibition at 30 µM [4]: 1 to 25%

COCCOc1nc(-c2ccncn2)nc2sc(-c3ccccc3)c(-c3ccccc3)c12
inhibition at 20 µM [1, 12]: 0%
inhibition at 20 µM [2]: 1 to 25%
inhibition at 20 µM [3]: 1 to 25%

Nc1nc(-c2ccccn2)nc2c(C(=O)N3CC4CC3CN4c3ccccc3)csc12 (stereo not shown)
inhibition at 30 µM [4]: 76 to 100%

O=C(CCCc1cccnc1)N1CCCc2c(O)nc(C3C=CC=CN3)nc21 (stereo not shown)
inhibition at 20 µM [1, 12]: 51 to 75%
inhibition at 20 µM [8, 14]: 51 to 75%
inhibition at 20 µM [2]: 51 to 75%
inhibition at 20 µM [3]: 25 to 50%

Cc1nc(-c2cn(C)cn2)nc2sc(-c3ccc(CNC(=O)OC(C)(C)C)cc3)c(-c3ccccc3)c12
inhibition at 20 µM [8, 14]: 1 to 25%
inhibition at 20 µM [11]: 1 to 25%
inhibition at 20 µM [6]: 1 to 25%

COCC(C)Nc1nc(-c2ccccn2)nc2sc(-c3ccncc3)c(-c3ccccc3)c12 (stereo not shown)
inhibition at 10 µM [7]: 51 to 75%

COc1nc(-c2ccccn2)nc2c(-c3cn(C)nc3C(C)C)csc12
inhibition at 10 µM [7]: 76 to 100%
